{
  "source": "patent US20040191289A1",
  "about": "“Compositions for controlling plant pathogenic bacterium and method of controlling plant pathogenic bacterium” (priority 2001, published 2004)",
  "key": {"Pythium aphanidermatum": {"tested_on": "Pythium aphanidermatum", "assay": "Antimicrobial test, mycelial growth on PSA medium (Test Example 1)", "type": "cell-based", "conditions": "20° C., 2 day incubation", "procedure": "(§1) Each sample fungal flora pre-cultured in PSA medium was cut from the medium plate with a cork borer, and placed on a center of PSA medium containing each test compound at a predetermined concentration, dispensed in a Petri dish with an inner diameter of 8 cm. Immediately thereafter, the dish was allowed to stand in a thermostatic room set at 20° C. The diameters of the flora zones were measured after 2 day incubation. A mycelial growth rate is calculated according to the following equation. […] A theoretically expected value can be calculated according to the following formula derived from the so-called Colby's formula. In cases where an observed value is lower than the theoretically expected one obtained from the formula derived from the Colby's formula, the phytopathogenic microorganism-disinfecting composition of the present invention is synergistically effective in combating and/or eliminating phytopathogenic microorganisms."}, "Pythium spinosum": {"tested_on": "Pythium spinosum", "assay": "Antimicrobial test, mycelial growth on PSA medium (Test Example 1)", "type": "cell-based", "conditions": "20° C., 2 day incubation", "procedure": "as §1"}, "[1]": {"tested_on": "Aphanomyces cochlioides (MAFF No. 305548)", "assay": "Antimicrobial test, mycelial growth on PSA medium (Test Example 4)", "type": "cell-based", "conditions": "20° C., 3 day incubation", "procedure": "(§2) Each sample fungal flora pre-cultured in PSA medium was cut from the medium plate with a cork borer, and placed on a center of PSA medium containing each test compound at a predetermined concentration, dispensed in a Petri dish with an inner diameter of 8 cm. Immediately thereafter, the dish was allowed to stand in a thermostatic room set at 20° C. […] In cases where an observed value is lower than the theoretically expected one derived from the Colby's formula, the phytopathogenic microorganism-disinfecting composition of the present invention is synergistically effective in combating and/or eliminating phytopathogenic microorganisms."}, "[2]": {"tested_on": "Pythium debaryanum (MAFF No. 305462)", "assay": "Antimicrobial test, mycelial growth on PSA medium (Test Example 4)", "type": "cell-based", "conditions": "20° C., 1 day incubation", "procedure": "as §2"}, "[3]": {"tested_on": "Pythium Damping-off Disease of Rice Seedlings", "assay": "Test for prophylactic efficacy against Pythium damping-off disease of rice seedlings (1) (Test Example 2)", "type": "in vivo", "conditions": "soil irrigation, 29 days after sowing", "procedure": "(§3) Polyvinyl chloride cups (each 10 cm square) were filled with pathogen-inoculated soil as bed soil, and seeded with rice seeds. Next, the polyvinyl chloride cup was irrigated using a pipette with a test solution (27.8 ml) prepared by adjusting each active ingredient compound to a predetermined concentration, and then covered with soil. After kept for 3 days in a thermostatic room set at 32° C., the plants were grown in a greenhouse. Ten days after sowing, the plants were exposed to a cold temperature during night. Twenty nine days after sowing, the disease incidence area was examined. In these cases, each theoretically expected value obtained from the aforementioned formula derived from the Colby's formula is shown in parentheses in Table 3."}, "[4]": {"tested_on": "Pythium Damping-off Disease of Rice Seedlings", "assay": "Test for prophylactic efficacy against Pythium damping-off disease of rice seedlings (2) (Test Example 3)", "type": "in vivo", "conditions": "soil irrigation, 35 days after sowing", "procedure": "as §3, with “AS resin cases” for “Polyvinyl chloride cups”, “15×11 cm)” for “10 cm square)”, “AS resin case” for “polyvinyl chloride cup”, “(50” for “(27.8”, “night for 3 days. Thirty five” for “night. Twenty nine”, “4.” for “3.”"}},
  "data": [
    {"smiles": "Cc1cc(O)no1", "note": "[Hymexazol, 5-methylisoxazol-3-ol]", "values": [
      {"measurement": "Mycelial Growth Rate (%)", "setting": "Pythium aphanidermatum; Hymexazol 25 ppm alone", "result": 22.7, "unit": "%"},
      {"measurement": "Mycelial Growth Rate (%)", "setting": "Pythium aphanidermatum; Hymexazol 50 ppm alone", "result": 16.4, "unit": "%"},
      {"measurement": "Mycelial Growth Rate (%)", "setting": "Pythium aphanidermatum; Hymexazol 100 ppm alone", "result": 6.3, "unit": "%"},
      {"measurement": "Mycelial Growth Rate (%)", "setting": "Pythium spinosum; Hymexazol 25 ppm alone", "result": 27.8, "unit": "%"},
      {"measurement": "Mycelial Growth Rate (%)", "setting": "Pythium spinosum; Hymexazol 50 ppm alone", "result": 21.6, "unit": "%"},
      {"measurement": "Mycelial Growth Rate (%)", "setting": "Pythium spinosum; Hymexazol 100 ppm alone", "result": 23.7, "unit": "%"},
      {"measurement": "Mycelial Growth Rate (%)", "setting": "[1]; Hymexazol 25 ppm alone", "result": 53, "unit": "%"},
      {"measurement": "Mycelial Growth Rate (%)", "setting": "[1]; Hymexazol 50 ppm alone", "result": 43, "unit": "%"},
      {"measurement": "Mycelial Growth Rate (%)", "setting": "[1]; Hymexazol 100 ppm alone", "result": 43, "unit": "%"},
      {"measurement": "Mycelial Growth Rate (%)", "setting": "[2]; Hymexazol 25 ppm alone", "result": 89, "unit": "%"},
      {"measurement": "Mycelial Growth Rate (%)", "setting": "[2]; Hymexazol 50 ppm alone", "result": 84, "unit": "%"},
      {"measurement": "Mycelial Growth Rate (%)", "setting": "[2]; Hymexazol 100 ppm alone", "result": 67, "unit": "%"},
      {"measurement": "Damping-off Incidence Area Rate (%)", "setting": "[3]; Hymexazol 1,040 g/ha alone", "result": 50, "unit": "%"},
      {"measurement": "Damping-off Incidence Area Rate (%)", "setting": "[4]; Hymexazol 1,040 g/ha alone (Compound No. 1 0 ppm)", "result": 90, "unit": "%"}
    ]},
    {"smiles": "Cc1ccc(-c2c(Cl)nc(C#N)n2S(=O)(=O)N(C)C)cc1", "note": "[Compound No. 1, 4-chloro-2-cyano-1-dimethylsulfamoyl-5-(4-methyl-phenyl)imidazole]", "values": [
      {"measurement": "Mycelial Growth Rate (%)", "setting": "Pythium aphanidermatum; Compound No. 1 25 ppm alone", "result": 21.1, "unit": "%"},
      {"measurement": "Mycelial Growth Rate (%)", "setting": "Pythium aphanidermatum; Compound No. 1 50 ppm alone", "result": 6.3, "unit": "%"},
      {"measurement": "Mycelial Growth Rate (%)", "setting": "Pythium aphanidermatum; Compound No. 1 100 ppm alone", "result": 9.4, "unit": "%"},
      {"measurement": "Mycelial Growth Rate (%)", "setting": "Pythium spinosum; Compound No. 1 25 ppm alone", "result": 14.4, "unit": "%"},
      {"measurement": "Mycelial Growth Rate (%)", "setting": "Pythium spinosum; Compound No. 1 50 ppm alone", "result": 9.3, "unit": "%"},
      {"measurement": "Mycelial Growth Rate (%)", "setting": "Pythium spinosum; Compound No. 1 100 ppm alone", "result": 2.1, "unit": "%"},
      {"measurement": "Mycelial Growth Rate (%)", "setting": "[1]; Compound No. 1 25 ppm alone", "result": 52, "unit": "%"},
      {"measurement": "Mycelial Growth Rate (%)", "setting": "[1]; Compound No. 1 50 ppm alone", "result": 29, "unit": "%"},
      {"measurement": "Mycelial Growth Rate (%)", "setting": "[1]; Compound No. 1 100 ppm alone", "result": 11, "unit": "%"},
      {"measurement": "Mycelial Growth Rate (%)", "setting": "[2]; Compound No. 1 25 ppm alone", "result": 59, "unit": "%"},
      {"measurement": "Mycelial Growth Rate (%)", "setting": "[2]; Compound No. 1 50 ppm alone", "result": 49, "unit": "%"},
      {"measurement": "Mycelial Growth Rate (%)", "setting": "[2]; Compound No. 1 100 ppm alone", "result": 44, "unit": "%"},
      {"measurement": "Damping-off Incidence Area Rate (%)", "setting": "[3]; Compound No. 1 278 g/ha alone", "result": 67, "unit": "%"},
      {"measurement": "Damping-off Incidence Area Rate (%)", "setting": "[4]; Compound No. 1 139 g/ha alone", "result": 50, "unit": "%"}
    ]}
  ]
}
